Data on 1 molecule can be found in BindingDB's records for patent US20250059194 (Michigan State University, 2025).

The target in this assay is T1, Serine/threonine-protein kinase ULK2 (Homo sapiens, UniProt Q8IYT8).
T1 sequence (Q8IYT8 whole entry): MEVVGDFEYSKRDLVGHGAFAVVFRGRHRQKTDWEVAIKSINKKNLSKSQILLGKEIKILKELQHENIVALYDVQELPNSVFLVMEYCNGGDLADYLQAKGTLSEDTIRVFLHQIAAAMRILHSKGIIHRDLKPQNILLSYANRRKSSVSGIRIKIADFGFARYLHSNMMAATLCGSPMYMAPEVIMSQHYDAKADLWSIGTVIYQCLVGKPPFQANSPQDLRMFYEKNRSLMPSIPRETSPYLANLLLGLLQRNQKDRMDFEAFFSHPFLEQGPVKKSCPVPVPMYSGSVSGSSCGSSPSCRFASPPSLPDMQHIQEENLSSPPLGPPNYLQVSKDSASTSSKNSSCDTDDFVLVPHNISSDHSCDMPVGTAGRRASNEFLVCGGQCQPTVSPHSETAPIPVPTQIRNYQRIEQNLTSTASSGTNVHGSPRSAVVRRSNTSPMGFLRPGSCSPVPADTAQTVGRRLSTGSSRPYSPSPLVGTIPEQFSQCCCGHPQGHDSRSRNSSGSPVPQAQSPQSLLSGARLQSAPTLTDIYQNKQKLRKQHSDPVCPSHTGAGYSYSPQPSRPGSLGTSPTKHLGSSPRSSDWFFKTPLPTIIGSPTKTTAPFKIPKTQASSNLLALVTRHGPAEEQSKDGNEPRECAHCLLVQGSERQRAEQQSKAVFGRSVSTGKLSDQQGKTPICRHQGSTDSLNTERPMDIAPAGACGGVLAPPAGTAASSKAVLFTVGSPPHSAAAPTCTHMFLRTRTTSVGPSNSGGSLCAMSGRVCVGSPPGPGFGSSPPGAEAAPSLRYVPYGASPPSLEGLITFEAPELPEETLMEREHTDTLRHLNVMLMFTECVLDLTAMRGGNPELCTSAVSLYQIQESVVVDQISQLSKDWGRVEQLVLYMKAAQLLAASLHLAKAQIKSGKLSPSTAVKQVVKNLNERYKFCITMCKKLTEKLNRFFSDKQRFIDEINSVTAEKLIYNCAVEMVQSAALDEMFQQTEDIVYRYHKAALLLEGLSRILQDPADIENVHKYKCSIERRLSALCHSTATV
As to the kind of experiment: Not found.
Excerpt: Not found

In general, IC50 refers to the concentration at which inhibition is half-maximal. A lower IC50 goes with greater potency.

For the molecule `CCC(CC)NC(=O)c1cc(-c2cnn3cc(N4CCNCC4)cnc23)cs1` [US20250059194, Example Table 1.9], half-maximal inhibition (IC50) was put at 0.325 µM. That is a sub-micromolar value.
